Experimental data reported in doi:10.1101/836932v1 (biorxiv, 2019).

What follows are compounds tested against T1, MLLT3 (AF9) (Homo sapiens, UniProt P42568) (assay: AlphaScreen).
T1 sequence (P42568 1-138 limits assumed): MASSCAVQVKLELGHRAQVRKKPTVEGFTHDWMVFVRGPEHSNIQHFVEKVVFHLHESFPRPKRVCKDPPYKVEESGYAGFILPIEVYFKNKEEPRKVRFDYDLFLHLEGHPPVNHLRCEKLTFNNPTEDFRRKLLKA
Type: binding

IC50 [µM] | Compound
> 100 | CCN(CC)Cc1ccc(CNC(=O)N2CCN(c3ncccn3)CC2)cc1 [compound 3, piperazine-1-carboxamide 3]
33 | O=C(NCc1ccc(CN2CCCC2)cc1)N1CCN(C(=O)c2cccs2)CC1 [compound 2, piperazine-1-carboxamide 2]
7.8 | COc1ccc(CNC(=O)N2CCN(c3ccc(C(C)=O)cc3)CC2)cn1 [compound 1, piperazine-1-carboxamide 1]
